Experimental data as given in US3957987A, “Compositions containing a carbonamidoquinoxaline-di-N-oxide and method of using same” (Bayer Aktiengesellschaft, priority 1971, dated 1976).
≈ marks a conversion by molar mass, not a printed value.

Legend:
Type in all cases: cell-based
Klebsiella 63 = experiment: Minimum inhibitory concentration in vitro, Klebsiella 63
From the text: (§1) As representative of the spectrum of antimicrobial activity for these compounds, the following representative minimum inhibitory concentrations shown on Tables A, B and C can be noted:
(§2) Minimum Inhibitory Concentrations In Vitro, in μg/ml of Medium

Clostridium botulinum = experiment: microbe, parasite or virus in culture; conditions: read-out: minimum inhibitory concentration
[1] = tested on: Pasteurella multocida ATCC; experiment: Minimum inhibitory concentration, Pasteurella multocida ATCC
[2] = tested on: Alcaligenes faecalis ATCC; experiment: Minimum inhibitory concentration, Alcaligenes faecalis ATCC
Mycobacterium species = experiment: Minimum inhibitory concentration, Mycobacterium species
From the text: As representative of the spectrum of antimicrobial activity for these compounds, the following representative minimum inhibitory concentrations shown on Tables A, B and C can be noted: […]

Klebsiella 8085 = experiment: Minimum inhibitory concentration in vitro, Klebsiella 8085
From the text: as §1, §2

Escherichia coli C 165 = experiment: Minimum inhibitory concentration in vitro, Escherichia coli C 165; conditions: C165
From the text: as §1, §2

[3] = tested on: Staphylococcus aureus 133; experiment: Minimum inhibitory concentration in vitro, Staphylococcus aureus 133
From the text: as §1, §2

Proteus vulgaris = experiment: Minimum inhibitory concentration in vitro, Proteus vulgaris specieis
From the text: as §1, §2

Streptococcus pyogenes = experiment: Minimum inhibitory concentration in vitro, Streptococcus pyogenes
From the text: as §1, §2

Clostridium tetani = experiment: microbe, parasite or virus in culture; conditions: read-out: minimum inhibitory concentration
Mycoplasma gran = experiment: Minimum inhibitory concentration, Mycoplasma gran
[4] = tested on: Bordetella bronchiseptica; experiment: Minimum inhibitory concentration, Bordetella bronchiseptica
Escherichia coli A 261 = experiment: Minimum inhibitory concentration in vitro, Escherichia coli A 261; conditions: A261
From the text: as §1, §2

Mycoplasma S6 = experiment: Minimum inhibitory concentration, Mycoplasma S6
Aeromonas liquefaciens = experiment: Minimum inhibitory concentration, Aeromonas liquefaciens; conditions: Aeromonas hydrophila

CCNC(=O)c1c(C=NNC(=O)OC)[n+]([O-])c2ccccc2[n+]1[O-] [Example 18]
MIC (Klebsiella 63): 100 µg/mL (≈ 300 µM) | MIC (Clostridium botulinum): 100 µg/mL (≈ 300 µM) | MIC [1]: 100 µg/mL (≈ 300 µM) | MIC [2]: 100 µg/mL (≈ 300 µM) | MIC (Mycobacterium species): 100 µg/mL (≈ 300 µM) | MIC (Klebsiella 8085): 10 µg/mL (≈ 30 µM) | MIC (Escherichia coli C 165): 100 µg/mL (≈ 300 µM) | MIC [3]: 100 µg/mL (≈ 300 µM) | MIC (Proteus vulgaris): 100 µg/mL (≈ 300 µM) | MIC (Streptococcus pyogenes): 100 µg/mL (≈ 300 µM) | MIC (Clostridium tetani): 100 µg/mL (≈ 300 µM) | MIC (Mycoplasma gran): 100 µg/mL (≈ 300 µM) | MIC [4]: 100 µg/mL (≈ 300 µM) | MIC (Escherichia coli A 261): 100 µg/mL (≈ 300 µM) | MIC (Mycoplasma S6): 100 µg/mL (≈ 300 µM) | MIC (Aeromonas liquefaciens): 100 µg/mL (≈ 300 µM)

CNC(=O)c1c(C=NO)[n+]([O-])c2ccccc2[n+]1[O-] [Example 19]
MIC (Klebsiella 63): 100 µg/mL (≈ 381 µM) | MIC (Clostridium botulinum): 100 µg/mL (≈ 381 µM) | MIC [1]: 100 µg/mL (≈ 381 µM) | MIC [2]: 100 µg/mL (≈ 381 µM) | MIC (Mycobacterium species): 40 to 100 µg/mL (≈ 153 to 381 µM) | MIC (Klebsiella 8085): 100 µg/mL (≈ 381 µM) | MIC (Escherichia coli C 165): 100 µg/mL (≈ 381 µM) | MIC [3]: 100 µg/mL (≈ 381 µM) | MIC (Proteus vulgaris): 100 µg/mL (≈ 381 µM) | MIC (Streptococcus pyogenes): 100 µg/mL (≈ 381 µM) | MIC (Clostridium tetani): 100 µg/mL (≈ 381 µM) | MIC (Mycoplasma gran): 100 µg/mL (≈ 381 µM) | MIC [4]: 100 µg/mL (≈ 381 µM) | MIC (Escherichia coli A 261): 100 µg/mL (≈ 381 µM) | MIC (Mycoplasma S6): 100 µg/mL (≈ 381 µM) | MIC (Aeromonas liquefaciens): 100 µg/mL (≈ 381 µM)
